Test results reported in ChEMBL document CHEMBL3608300, “Synthesis and anticancer activity of novel curcumin-quinolone hybrids” (Bioorg Med Chem Lett, 2015).
Calls of active or inactive are those of the source. The calls are words filed in the database; no cut-off is given here.

Key:
A549 [1] = assay: Cytotoxicity against human A549 cells after 24 hrs by MTT assay; format: functional, cell-based; conditions: A549, 24 h
MCF7 [2] = assay: Cytotoxicity against human MCF7 cells after 24 hrs by MTT assay; format: functional, cell-based; conditions: MCF7, 24 h
SK-OV-3 [3] = assay: Cytotoxicity against human SKOV3 cells after 24 hrs by MTT assay; format: functional, cell-based; conditions: SK-OV-3, 24 h
[4] = Cytotoxicity against human H460 cells after 24 hrs by MTT assay; format: functional, cell-based; conditions: NCI-H460, 24 h
A549 [5] = assay: Cytotoxicity against human A549 cells up to 10 uM after 24 hrs by MTT assay; format: functional, cell-based
MCF7 [6] = assay: Cytotoxicity against human MCF7 cells up to 10 uM after 24 hrs by MTT assay; format: functional, cell-based
SK-OV-3 [7] = assay: Cytotoxicity against human SKOV3 cells up to 10 uM after 24 hrs by MTT assay; format: functional, cell-based
NCI-H460 [8] = assay: Cytotoxicity against human H460 cells up to 10 uM after 24 hrs by MTT assay; format: functional, cell-based
NCI-H460 [9] = assay: Cytotoxicity against human H460 cells up to 30 uM after 24 hrs by MTT assay; format: functional, cell-based
[10] = Cytotoxicity against mouse NIH/3T3 cells assessed as cell viability at IC50 after 24 hrs by MTT assay; format: functional, NIH3T3
SK-OV-3 [11] = assay: Induction of cell morphological changes in human SKOV3 cells assessed as cell shrinkage and development of bubble like blebs on membranes at IC50 after 24 hrs by phase contrast microscope analysis; format: functional, cell-based
SK-OV-3 [12] = assay: Induction of cell morphological changes in human SKOV3 cells assessed as cells with ruptured cell membranes at IC50 after 24 hrs by phase contrast microscope analysis; format: functional, cell-based
SK-OV-3 [13] = assay: Induction of apoptosis in human SKOV3 cells assessed as dead cells at IC50 after 24 hrs using Annexin V-PE/7AAD staining by flow cytometry (reference value: 0.7%); format: functional
SK-OV-3 [14] = assay: Induction of apoptosis in human SKOV3 cells assessed as apoptotic cells at IC50 after 24 hrs using Annexin V-PE/7AAD staining by flow cytometry (reference value: 9.0%); format: functional
SK-OV-3 [15] = assay: Induction of apoptosis in human SKOV3 cells assessed as live cells at IC50 after 24 hrs using Annexin V-PE/7AAD staining by flow cytometry (reference value: 83.4%); format: functional
SK-OV-3 [16] = assay: Induction of apoptosis in human SKOV3 cells assessed as early apoptotic cells at IC50 after 24 hrs using Annexin V-PE/7AAD staining by flow cytometry (reference value: 6.8%); format: functional
SK-OV-3 [17] = assay: Induction of ROS production in human SKOV3 cells at IC50 after 3 hrs using DCFDA dye by flow cytometry relative to control; format: functional
SK-OV-3 [18] = assay: Cell cycle arrest in human SKOV3 cells assessed as accumulation at S phase at IC50 after 24 hrs using hypo propidium iodide staining by flow cytometry (reference value: 11.4%); format: functional
SK-OV-3 [19] = assay: Cell cycle arrest in human SKOV3 cells assessed as accumulation at G2/M phase at IC50 after 24 hrs using hypo propidium iodide staining by flow cytometry (reference value: 15.43%); format: functional
SK-OV-3 [20] = assay: Cell cycle arrest in human SKOV3 cells assessed as accumulation at G0/G1 phase at IC50 after 24 hrs using hypo propidium iodide staining by flow cytometry (reference value: 72.52%); format: functional
SJRH30 = assay: Induction of ROS production in human Rh30 cells at 10 uM after 1 to 2 hrs relative to control; format: functional
HT-29 = assay: Cell cycle arrest in human HT-29 cells assessed as accumulation at G2/M phase at 50 uM after 24 hrs (reference value: 12%); format: functional
HCT-15 = assay: Cell cycle arrest in human HCT15 cells assessed as accumulation at G2/M phase at 50 uM after 24 hrs (reference value: 17%); format: functional
MCF7 [21] = assay: Cell cycle arrest in human MCF7 cells assessed as accumulation at G2/M phase at 10 uM after 24 hrs (reference value: 9%); format: functional
A549 [22] = assay: Cytotoxicity against human A549 cells up to 30 uM after 24 hrs by MTT assay; format: functional, cell-based
MCF7 [23] = assay: Cytotoxicity against human MCF7 cells up to 30 uM after 24 hrs by MTT assay; format: functional, cell-based
SK-OV-3 [24] = assay: Cytotoxicity against human SKOV3 cells up to 30 uM after 24 hrs by MTT assay; format: functional, cell-based

SMILES | IC50 (A549 [1]) [µM] | IC50 (MCF7 [2]) [µM] | IC50 (SK-OV-3 [3]) [µM] | IC50 [4] [µM] | also measured
C#CCn1c(=O)c(C=O)cc2ccccc21 | > 100 | > 100 | > 100 | > 100 | 
COc1cc(/C=C/C(O)=C/C(=O)/C=C/c2cc3ccccc3n(Cc3ccccc3)c2=O)ccc1O |  |  |  |  | Activity (A549 [5]): inactive; Activity (MCF7 [6]): inactive; Activity (SK-OV-3 [7]): inactive; Activity (NCI-H460 [8]): inactive
O=Cc1cc2ccccc2n(Cc2ccccc2)c1=O | > 100 | 31.9 | > 100 | > 100 | 
C=CCn1c(=O)c(/C=C/C(=O)/C=C(O)/C=C/c2ccc(O)c(OC)c2)cc2ccccc21 | 31.3 | 23.5 | 26 |  | Activity (NCI-H460 [9]): inactive
C#CCn1c(=O)c(/C=C/C(=O)/C=C(O)/C=C/c2ccc(O)c(OC)c2)cc2cc(OC)ccc21 | 20.6 | > 100 | 14 | 38.1 | 
COc1cc(/C=C/C(O)=C/C(=O)/C=C/c2cc3ccccc3[nH]c2=O)ccc1O |  |  |  |  | Activity (A549 [5]): inactive; Activity (MCF7 [6]): inactive; Activity (SK-OV-3 [7]): inactive; Activity (NCI-H460 [8]): inactive
C#CCn1c(=O)c(C=O)cc2cc(C)ccc21 | > 100 | > 100 | > 100 | > 100 | 
C#CCn1c(=O)c(/C=C/C(=O)/C=C(O)/C=C/c2ccc(O)c(OC)c2)cc2cc(C)ccc21 | 23.9 | 36.2 | 12.8 | 21.8 | Activity [10]: 74.5%; Activity (SK-OV-3 [11]): Active; Activity (SK-OV-3 [12]): Active; Activity (SK-OV-3 [13]): 7.3%; Activity (SK-OV-3 [14]): 62.5%; Activity (SK-OV-3 [15]): 27.7%; Activity (SK-OV-3 [16]): 2.5%; Activity (SK-OV-3 [17]): 61.5%; Activity (SK-OV-3 [18]): 19.49%; Activity (SK-OV-3 [19]): 25%; Activity (SK-OV-3 [20]): 54.43%
COc1cc(/C=C/C(=O)CC(=O)/C=C/c2ccc(O)c(OC)c2)ccc1O [CURCUMIN] | 60.2 | 32.2 | 43.6 | 82.5 | fold change (FC) (SJRH30): 1.5; Activity (HT-29): 33%; Activity (HCT-15): 32%; Activity (MCF7 [21]): 28%
C=CCn1c(=O)c(C=O)cc2ccccc21 | > 100 | > 100 | > 100 | > 100 | 
C#CCn1c(=O)c(C=O)cc2cc(OC)ccc21 | > 100 | > 100 | > 100 | > 100 | 
O=Cc1cc2ccccc2[nH]c1=O | > 100 | > 100 | > 100 | > 100 | 
C#CCn1c(=O)c(/C=C/C(=O)/C=C(O)/C=C/c2ccc(O)c(OC)c2)cc2ccccc21 | 21.3 | 15 | 19 | 25.4 | 
O=C(/C=C(O)/C=C/c1cc2ccccc2[nH]c1=O)/C=C/c1cc2ccccc2[nH]c1=O | 69.1 | 31.5 | 34 | 63.3 | 
C#CCn1c(=O)c(C=O)cc2cc(F)ccc21 | > 100 | > 100 | > 100 | > 100 | 
C#CCn1c(=O)c(C=O)cc2cc(Cl)ccc21 | > 100 | > 100 | > 100 | > 100 | 
C#CCn1c(=O)c(/C=C/C(=O)/C=C(O)/C=C/c2ccc(O)c(OC)c2)cc2cc(F)ccc21 | 40.5 | 25 | > 100 | 44.3 | 
C#CCn1c(=O)c(/C=C/C(=O)/C=C(O)/C=C/c2ccc(O)c(OC)c2)cc2cc(Cl)ccc21 |  |  |  |  | Activity (A549 [22]): inactive; Activity (MCF7 [23]): inactive; Activity (SK-OV-3 [24]): inactive; Activity (NCI-H460 [9]): inactive
